Source: US20120238549A1, “Nuclear Hormone Receptor Modulators” (ABBOTT LABORATORIES, priority 2011, published 2012)

Target: T1, Glucocorticoid Receptor (GR) (Homo sapiens, UniProt P04150)
T1 construct: purchased Invitrogen P2893
T1 sequence (P04150 1-777): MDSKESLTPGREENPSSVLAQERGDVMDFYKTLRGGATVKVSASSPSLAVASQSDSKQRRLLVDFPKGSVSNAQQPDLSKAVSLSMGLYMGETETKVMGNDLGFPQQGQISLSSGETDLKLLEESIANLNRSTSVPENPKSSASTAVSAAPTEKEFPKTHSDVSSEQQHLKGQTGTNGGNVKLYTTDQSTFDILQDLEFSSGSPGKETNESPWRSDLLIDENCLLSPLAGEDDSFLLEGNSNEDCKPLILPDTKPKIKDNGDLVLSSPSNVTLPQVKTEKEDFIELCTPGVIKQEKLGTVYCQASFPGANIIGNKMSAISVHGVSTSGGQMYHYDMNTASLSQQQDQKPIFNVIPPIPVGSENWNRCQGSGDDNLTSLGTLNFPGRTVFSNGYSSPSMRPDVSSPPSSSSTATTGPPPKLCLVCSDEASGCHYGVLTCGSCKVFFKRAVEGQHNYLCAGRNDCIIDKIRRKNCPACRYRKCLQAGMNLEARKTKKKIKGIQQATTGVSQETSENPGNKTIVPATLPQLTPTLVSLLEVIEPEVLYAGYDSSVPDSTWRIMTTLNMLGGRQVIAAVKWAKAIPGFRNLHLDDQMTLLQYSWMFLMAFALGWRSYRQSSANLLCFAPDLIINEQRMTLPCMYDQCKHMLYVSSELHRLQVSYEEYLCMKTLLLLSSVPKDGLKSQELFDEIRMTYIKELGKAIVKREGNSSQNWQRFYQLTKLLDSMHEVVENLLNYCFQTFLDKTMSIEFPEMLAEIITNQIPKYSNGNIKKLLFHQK
Experiment: GR Florescence Polarization Assay (PolarScreen Glucocorticoid Receptor Competitor Assay, Red)
Details: Fluorescense polarization binding ranges; competition with fluorescent glucocorticoid, incubated overnight at 4° C.
Method in brief: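 Competitive fluorescence polarization using fluorescent glucocorticoid tracer and human GR in kit buffer. Compounds serially diluted 1:4 in DMSO, incubated with tracer and GR overnight at 4 °C before polarization read.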

Compound	IC50 [µM]
Cc1ncccc1NC(=O)c1ccc2c(c1)CCC[C@H]1C[C@](O)(C(F)(F)F)CC[C@]21Cc1ccccc1 [Example 107, (7aS,9S,11aR)-11a-Benzyl-9-hydroxy-9-trifluoromethyl-6,7,7a,8,9,10,11,11a-octahydro-5H-dibenzo[a,c]cycloheptene-3-carboxylic acid (2-methyl-pyridin-3-yl)-amide]	0.1 to 1
Cc1ncccc1NC(=O)c1ccc2c(c1)CN(C)C[C@H]1CC(=O)CC[C@@]21Cc1ccccc1 [Example 108, (4aS,11bS)-11b-Benzyl-6-methyl-N-(2-methylpyridin-3-yl)-3-oxo-2,3,4,4a,5,6,7,11b-octahydro-1H-dibenzo[c,e]azepine-9-carboxamide]	1 to 10
Cc1ncccc1NC(=O)c1ccc2c(c1)CN(C)C[C@H]1C[C@@H](O)CC[C@@]21Cc1ccccc1 [Example 109, (3S,4aS,11bS)-11b-benzyl-3-hydroxy-6-methyl-N-(2-methylpyridin-3-yl)-2,3,4,4a,5,6,7,11b-octahydro-1H-dibenzo[c,e]azepine-9-carboxamide]	> 10
Cc1ncccc1NC(=O)c1ccc2c(c1)COC(=O)[C@H]1CC(=O)CC[C@@]21Cc1ccccc1 [Example 110, (7aS,11aS)-11a-Benzyl-N-(2-methylpyridin-3-yl)-7,9-dioxo-5,7,7a,8,9,10,11,11a-octahydrodibenzo[c,e]oxepine-3-carboxamide]	> 10
CC[C@@]1(O)CC[C@@]2(Cc3ccccc3)c3ccc(C(=O)Nc4cccnc4C)cc3COC[C@H]2C1 [Example 111, (7aS,9R,11aS)-11a-Benzyl-9-ethyl-9-hydroxy-N-(2-methylpyridin-3-yl)-5,7,7a,8,9,10,11,11a-octahydrodibenzo[c,e]oxepine-3-carboxamide]	< 0.1
CC[C@@]1(O)CC[C@@]2(Cc3ccccc3)c3ccc(C(=O)Nc4cccnc4C)cc3C(=O)OC[C@H]2C1 [Example 112, (7aS,9R,11aS)-11a-Benzyl-9-ethyl-9-hydroxy-N-(2-methylpyridin-3-yl)-5-oxo-5,7,7a,8,9,10,11,11a-octahydrodibenzo[c,e]oxepine-3-carboxamide]	0.1 to 1
CC[C@@]1(O)CC[C@@]2(Cc3ccccc3)c3ccc(C(=O)Nc4cccnc4C)cc3C(=O)N(C)C[C@@H]2C1 [Example 113, (3R,4aR,11bS)-11b-Benzyl-3-ethyl-3-hydroxy-6-methyl-N-(2-methylpyridin-3-yl)-7-oxo-2,3,4,4a,5,6,7,11b-octahydro-1H-dibenzo[c,e]azepine-9-carboxamide]	1 to 10
CC[C@@]1(O)CC[C@@]2(Cc3ccccc3)c3ccc(C(=O)Nc4cccnc4C)cc3CC(=O)C[C@H]2C1 [Example 114, (7aR,9R,11aS)-11a-Benzyl-9-ethyl-9-hydroxy-6-oxo-6,7,7a,8,9,10,11,11a-octahydro-5H-dibenzo[a,c]cycloheptene-3-carboxylic acid (2-methyl-pyridin-3-yl)-amide]	< 0.1
Cc1ncccc1NC(=O)c1ccc2c(c1)C(=O)OC[C@@H]1C[C@@](O)(C(F)(F)F)CC[C@@]21Cc1ccccc1 [Example 115, (7aR,9R,11aS)-11a-Benzyl-9-hydroxy-N-(2-methylpyridin-3-yl)-5-oxo-9-(trifluoromethyl)-5,7,7a,8,9,10,11,11a-octahydrodibenzo[c,e]oxepine-3-carboxamide]	0.1 to 1
Cc1ncccc1NC(=O)c1ccc2c(c1)COC[C@@H]1C[C@@](O)(C(F)(F)F)CC[C@@]21Cc1ccccc1 [Example 116, (7aR,9R,11aS)-11a-Benzyl-9-hydroxy-N-(2-methylpyridin-3-yl)-9-(trifluoromethyl)-5,7,7a,8,9,10,11,11a-octahydrodibenzo[c,e]oxepine-3-carboxamide]	0.1 to 1
Cc1ncccc1NC(=O)c1ccc2c(c1)CN(C)C[C@@H]1C[C@@](O)(C(F)(F)F)CC[C@@]21Cc1ccccc1 [Example 117, (3R,4aR,11bS)-11b-Benzyl-3-hydroxy-6-methyl-N-(2-methylpyridin-3-yl)-3-(trifluoromethyl)-2,3,4,4a,5,6,7,11b-octahydro-1H-dibenzo[c,e]azepine-9-carboxamide]	0.1 to 1
Cc1ncccc1NC(=O)c1ccc2c(c1)C(=O)CC[C@@H]1C[C@@](O)(C(F)(F)F)CC[C@@]21Cc1ccccc1 [Example 118, (7aR,9R,11aS)-11a-Benzyl-9-hydroxy-5-oxo-9-trifluoromethyl-6,7,7a,8,9,10,11,11a-octahydro-5H-dibenzo[a,c]cycloheptene-3-carboxylic acid (2-methyl-pyridin-3-yl)-amide]	< 0.1
CC[C@@]1(O)CC[C@@]2(Cc3ccccc3)c3ccc(C(=O)Nc4ccccc4N)cc3CCC[C@H]2C1 [Example 126, (7aS,9R,11aS)-11a-Benzyl-9-ethyl-9-hydroxy-6,7,7a,8,9,10,11,11a-octahydro-5H-dibenzo[a,c]cycloheptene-3-carboxylic acid (2-amino-phenyl)-amide]	< 0.1
CC[C@@]1(O)CC[C@@]2(Cc3ccccc3)c3ccc(-c4nc5ccccc5[nH]4)cc3CCC[C@H]2C1 [Example 127, (3R,4aS,11bS)-9-(1H-benzoimidazol-2-yl)-11b-benzyl-3-ethyl-2,3,4,4a,5,6,7,11b-octahydro-1H-dibenzo[a,c]cyclohepten-3-ol]	0.1 to 1
CC[C@@]12CC[C@](O)(CCC(F)(F)F)C[C@@H]1CCCc1cc(C(=O)Nc3cccnc3C)ccc12.CC[C@]12CC[C@@](O)(CCC(F)(F)F)C[C@H]1CCCc1cc(C(=O)Nc3cccnc3C)ccc12 [Example 133, (7aS,9S,11aR)-11a-Ethyl-9-hydroxy-9-(3,3,3-trifluoro-propyl)-6,7,7a,8,9,10,11,11a-octahydro-5H-dibenzo[a,c]cycloheptene-3-carboxylic acid (2-methyl-pyridin-3-yl)-amide; compound with (7aR,9R,11aS)-11a-ethyl-9-hydroxy-9-(3,3,3-trifluoro-propyl)-6,7,7a,8,9,10,11,11a-octahydro-5H-dibenzo[a,c]cycloheptene-3-carboxylic acid (2-methyl-pyridin-3-yl)-amide]	< 0.1
CC[C@@]1(O)CC[C@@]2(CC)c3ccc(C(=O)Nc4cccnc4C)cc3COC[C@H]2C1 [Example 140]	0.1 to 1
CC[C@]1(O)CC[C@]2(CC)c3ccc(C(=O)Nc4cccnc4C)cc3COC[C@@H]2C1 [Example 141]	> 10
CC[C@@]1(O)CC[C@@]2(Cc3ccccc3)c3ccc(C(=O)Nc4cccc(N)c4)cc3CCC[C@H]2C1 [Example 142, (7aS,9R,11aS)-11a-Benzyl-9-ethyl-9-hydroxy-6,7,7a,8,9,10,11,11a-octahydro-5H-dibenzo[a,c]cycloheptene-3-carboxylic acid (3-amino-phenyl)-amide]	< 0.1
CC[C@@]1(O)CC[C@@]2(Cc3ccccc3)c3ccc(C(=O)Nc4ccc(N)cc4)cc3CCC[C@H]2C1 [Example 143, (7aS,9R,11aS)-11a-Benzyl-9-ethyl-9-hydroxy-6,7,7a,8,9,10,11,11a-octahydro-5H-dibenzo[a,c]cycloheptene-3-carboxylic acid (4-amino-phenyl)-amide]	< 0.1
CCC[C@@]1(O)CC[C@@]2(CC)c3ccc(C(=O)Nc4ccccc4Cl)cc3CCC[C@H]2C1 [Example 151, (7aS,9R,11aR)-11a-Ethyl-9-hydroxy-9-propyl-6,7,7a,8,9,10,11,11a-octahydro-5H-dibenzo[a,c]cycloheptene-3-carboxylic acid (2-chloro-phenyl)-amide]	< 0.1
(3R,4aR,11bR)-11b-benzyl-3-methyl-2,3,4,4a,5,6,7,11b-octahydro-1H-dibenzo[a,c]cycloheptene-3,9-diol; compound with (3S,4aS,11bS)-11b-benzyl-3-methyl-2,3,4,4a,5,6,7,11b-octahydro-1H-dibenzo[a,c]cycloheptene-3,9-diol [Example 7]	< 0.1
(3R,4aS,11bS)-11b-Benzyl-3-methyl-2,3,4,4a,5,6,7,11b-octahydro-1H-dibenzo[a,c]cycloheptene-3,9-diol; compound with (3S,4aR,11bR)-11b-benzyl-3-methyl-2,3,4,4a,5,6,7,11b-octahydro-1H-dibenzo[a,c]cycloheptene-3,9-diol [Example 6]	< 0.1
